The subject of this assay is clinical strains of Mycobacterium tuberculosis. The experiment in a line: Reference phenotypic test of antibiotic sensitivity in solid medium. The format is cell-based. Particulars: Mycobacterium tuberculosis, read-out: minimum inhibitory concentration.

The structures appear in SMILES notation.

Turning to `CO[C@H]1/C=C/O[C@@]2(C)Oc3c(C)c(O)c4c(O)c(c(/C=N/N5CCN(C)CC5)c(O)c4c3C2=O)NC(=O)/C(C)=C\C=C\[C@H](C)[C@H](O)[C@@H](C)[C@@H](O)[C@@H](C)[C@H](OC(C)=O)[C@@H]1C` [rifampicin], the MIC is over 1 µg/mL.

For the origin of these results see US8841087B2 (priority 2008, dated 2014).
